ChEMBL document CHEMBL1201862, “PubChem BioAssay data set” (2004)
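Growth conditions: 96-well plates. Treatment: test compound, 48 hours, 5 concentrations. Analysis: linear interpolation between bracketing concentrations; unreached endpoints set to highest concentration. At the GI50, growth is halved.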 Calls of active or inactive are those of the source. No stated cut-off is given here; in the data, active = GI50 up to about 1.1 µM and inactive = higher.

Experiments:
Experiment in all cases: NCI tumour cell line growth inhibition, 48 h
MDA-MB-435 = tested on: MDA-MB-435
HT-29 = tested on: HT-29
RXF 393 = tested on: RXF 393
Hs-578T = tested on: Hs-578T
NCI-H226 = tested on: NCI-H226
MOLT-4 = tested on: MOLT-4
A549 = tested on: A549
SK-MEL-2 = tested on: SK-MEL-2
HOP-92 = tested on: HOP-92
SNB-19 = tested on: SNB-19
LOX IMVI = tested on: LOX IMVI
HCT-15 = tested on: HCT-15
T47D = tested on: T47D
SR = tested on: SR
TK-10 = tested on: TK-10
HL-60 = tested on: HL-60
OVCAR-5 = tested on: OVCAR-5
NCI-H460 = tested on: NCI-H460
MDA-MB-231 = tested on: MDA-MB-231
SF-539 = tested on: SF-539
A498 = tested on: A498
CCRF-CEM = tested on: CCRF-CEM
SNB-75 = tested on: SNB-75
SF-295 = tested on: SF-295
PC-3 = tested on: PC-3
HCT-116 = tested on: HCT-116
SK-MEL-28 = tested on: SK-MEL-28
MDA-N = tested on: MDA-N
K562 = tested on: K562
SF-268 = tested on: SF-268
BT-549 = tested on: BT-549
HOP-62 = tested on: HOP-62
SW-620 = tested on: SW-620
SK-MEL-5 = tested on: SK-MEL-5
U-251 = tested on: U-251
UACC-257 = tested on: UACC-257
DU-145 = tested on: DU-145
786-0 = tested on: 786-0
SK-OV-3 = tested on: SK-OV-3
HCC 2998 = tested on: HCC 2998
KM12 = tested on: KM12
ACHN = tested on: ACHN
RPMI-8226 = tested on: RPMI-8226
SN12C = tested on: SN12C
MCF7 = tested on: MCF7
OVCAR-3 = tested on: OVCAR-3
UACC-62 = tested on: UACC-62
NCI-H23 = tested on: NCI-H23
OVCAR-8 = tested on: OVCAR-8
IGROV-1 = tested on: IGROV-1
Malme-3M = tested on: Malme-3M
EKVX = tested on: EKVX
UO-31 = tested on: UO-31
M14 = tested on: M14
COLO 205 = tested on: COLO 205
NCI-H522 = tested on: NCI-H522

## CC1CCC2C(C(=O)O[C@H]3C4CCO[C@@H](OC5OC(CO)C(O)C(O)C5O)C4[C@@]4(CO)O[C@@H]34)=CO[C@@H](OC3OC(CO)C(O)C(O)C3O)C12 (stereo not given in full)
MDA-MB-435
  GI50: > 10 µM (inactive)
HT-29
  GI50: > 10 µM (inactive)
RXF 393
  GI50: > 10 µM (inactive)
Hs-578T
  GI50: > 10 µM (inactive)
NCI-H226
  GI50: > 10 µM (inactive)
MOLT-4
  GI50: > 10 µM (inactive)
A549
  GI50: > 10 µM (inactive)
SK-MEL-2
  GI50: > 10 µM (inactive)
HOP-92
  GI50: > 10 µM (inactive)
SNB-19
  GI50: > 10 µM (inactive)
LOX IMVI
  GI50: > 10 µM (inactive)
HCT-15
  GI50: > 10 µM
T47D
  GI50: > 10 µM (inactive)
SR
  GI50: > 10 µM (inactive)
TK-10
  GI50: > 10 µM (inactive)
HL-60
  GI50: > 10 µM (inactive)
OVCAR-5
  GI50: > 10 µM (inactive)
NCI-H460
  GI50: > 10 µM (inactive)
MDA-MB-231
  GI50: > 10 µM (inactive)
SF-539
  GI50: > 10 µM (inactive)
A498
  GI50: > 10 µM (inactive)
CCRF-CEM
  GI50: > 10 µM (inactive)
SNB-75
  GI50: > 10 µM (inactive)
SF-295
  GI50: > 10 µM (inactive)
PC-3
  GI50: > 10 µM (inactive)
HCT-116
  GI50: > 10 µM (inactive)
SK-MEL-28
  GI50: > 10 µM (inactive)
MDA-N
  GI50: > 10 µM (inactive)
K562
  GI50: > 10 µM (inactive)
SF-268
  GI50: > 10 µM (inactive)
BT-549
  GI50: > 10 µM (inactive)
HOP-62
  GI50: > 10 µM (inactive)
SW-620
  GI50: > 10 µM (inactive)
SK-MEL-5
  GI50: > 10 µM (inactive)
U-251
  GI50: > 10 µM (inactive)
UACC-257
  GI50: > 10 µM (inactive)
DU-145
  GI50: > 10 µM (inactive)
786-0
  GI50: > 10 µM (inactive)
SK-OV-3
  GI50: > 10 µM (inactive)
HCC 2998
  GI50: > 10 µM (inactive)
KM12
  GI50: > 10 µM (inactive)
ACHN
  GI50: > 10 µM (inactive)
RPMI-8226
  GI50: > 10 µM (inactive)
SN12C
  GI50: > 10 µM (inactive)
MCF7
  GI50: > 10 µM (inactive)
OVCAR-3
  GI50: > 10 µM (inactive)
UACC-62
  GI50: > 10 µM (inactive)
NCI-H23
  GI50: > 10 µM (inactive)
OVCAR-8
  GI50: > 10 µM (inactive)
IGROV-1
  GI50: > 10 µM (inactive)
Malme-3M
  GI50: > 10 µM (inactive)
EKVX
  GI50: > 10 µM (inactive)
UO-31
  GI50: > 10 µM (inactive)
M14
  GI50: > 10 µM (inactive)

## CC(C)OP(=O)(c1ccccc1)c1ccc2c(c1)OCCOCCOCCOCCO2 (stereo not given)
MDA-MB-435
  GI50: > 100 µM (inactive)
COLO 205
  GI50: > 100 µM (inactive)
HT-29
  GI50: > 100 µM (inactive)
Hs-578T
  GI50: > 100 µM (inactive)
NCI-H226
  GI50: > 100 µM (inactive)
MOLT-4
  GI50: > 100 µM (inactive)
A549
  GI50: > 100 µM (inactive)
SNB-19
  GI50: > 100 µM (inactive)
LOX IMVI
  GI50: > 100 µM (inactive)
HCT-15
  GI50: > 100 µM
T47D
  GI50: > 100 µM (inactive)
TK-10
  GI50: > 100 µM (inactive)
HL-60
  GI50: > 100 µM (inactive)
NCI-H460
  GI50: > 100 µM (inactive)
MDA-MB-231
  GI50: > 100 µM (inactive)
SF-539
  GI50: > 100 µM (inactive)
A498
  GI50: > 100 µM (inactive)
CCRF-CEM
  GI50: > 100 µM (inactive)
SNB-75
  GI50: > 100 µM (inactive)
SF-295
  GI50: > 100 µM (inactive)
PC-3
  GI50: > 100 µM (inactive)
HCT-116
  GI50: > 100 µM (inactive)
SK-MEL-28
  GI50: > 100 µM (inactive)
MDA-N
  GI50: > 100 µM (inactive)
K562
  GI50: > 100 µM (inactive)
SF-268
  GI50: > 100 µM (inactive)
BT-549
  GI50: > 100 µM (inactive)
HOP-62
  GI50: > 100 µM (inactive)
SW-620
  GI50: > 100 µM (inactive)
SK-MEL-5
  GI50: > 100 µM (inactive)
UACC-257
  GI50: > 100 µM (inactive)
DU-145
  GI50: > 100 µM (inactive)
786-0
  GI50: > 100 µM (inactive)
SK-OV-3
  GI50: > 100 µM (inactive)
HCC 2998
  GI50: > 100 µM (inactive)
KM12
  GI50: > 100 µM (inactive)
NCI-H522
  GI50: 84.7 µM (inactive)
ACHN
  GI50: > 100 µM (inactive)
RPMI-8226
  GI50: > 100 µM (inactive)
SN12C
  GI50: > 100 µM (inactive)
MCF7
  GI50: > 100 µM (inactive)
UACC-62
  GI50: > 100 µM (inactive)
NCI-H23
  GI50: > 100 µM (inactive)
OVCAR-8
  GI50: > 100 µM (inactive)
IGROV-1
  GI50: > 100 µM (inactive)
Malme-3M
  GI50: > 100 µM (inactive)
EKVX
  GI50: > 100 µM (inactive)
UO-31
  GI50: > 100 µM (inactive)

## COC(=O)C1C(O)C(C)C(O)C(C)/C=C\C=C(C)C(=O)Nc2c(C)c(OC(C)=O)c3c(c2O)C(=O)C(C)=C2OCOC(=C23)C(C)=CC(C)(O)C(O)C(C)C1O (stereo not given)
MDA-MB-435
  GI50: 68.4 µM (inactive)
COLO 205
  GI50: 20.4 µM (inactive)
HT-29
  GI50: 42.5 µM (inactive)
Hs-578T
  GI50: > 100 µM (inactive)
NCI-H226
  GI50: > 100 µM (inactive)
A549
  GI50: > 100 µM (inactive)
SK-MEL-2
  GI50: 32.3 µM (inactive)
HOP-92
  GI50: 60.4 µM (inactive)
T47D
  GI50: 52.2 µM (inactive)
SR
  GI50: 96.4 µM (inactive)
TK-10
  GI50: > 100 µM (inactive)
HL-60
  GI50: 29.4 µM (inactive)
MDA-MB-231
  GI50: 24.9 µM (inactive)
SF-539
  GI50: > 100 µM (inactive)
PC-3
  GI50: > 100 µM (inactive)
HCT-116
  GI50: 30.3 µM (inactive)
SK-MEL-28
  GI50: 47 µM (inactive)
MDA-N
  GI50: 59.8 µM (inactive)
SF-268
  GI50: 68.4 µM (inactive)
BT-549
  GI50: > 100 µM (inactive)
SW-620
  GI50: 35.5 µM (inactive)
SK-MEL-5
  GI50: 41.2 µM (inactive)
UACC-257
  GI50: 23 µM (inactive)
DU-145
  GI50: > 100 µM (inactive)
786-0
  GI50: > 100 µM (inactive)
ACHN
  GI50: > 100 µM (inactive)
MCF7
  GI50: 35.6 µM (inactive)
OVCAR-3
  GI50: 24.3 µM (inactive)
OVCAR-8
  GI50: 34 µM (inactive)
IGROV-1
  GI50: 87.1 µM (inactive)
Malme-3M
  GI50: 36.5 µM (inactive)
UO-31
  GI50: 82.4 µM (inactive)
M14
  GI50: 38.9 µM (inactive)
